US12371454B2, “Cyclic peptide compound having Kras inhibitory action” (priority 2019, dated 2025)
Starred links: 1 amine or outer side, 2 acyl side, 3 side chain; linkers in the order of their positions; H or OH if unused. Positions of bridges follow the written chain, without caps; N, C: chain ends. Non-standard residues stand in square brackets, D forms with d. Residues, ends and D or L forms follow the SMILES beside them. *: point of attachment. hPhe(3-Cl-4-CF3) = N[C@@H](CCc1ccc(C(F)(F)F)c(Cl)c1)C(=O)O; hPhe(3-F,4-CF3) = N[C@@H](CCc1ccc(C(F)(F)F)c(F)c1)C(=O)O; 3Oxa8azabicyclo(3.2.1)octane = C1CC2COCC1N2*; NMePhe(4-Me) = CN[C@@H](Cc1ccc(C)cc1)C(=O)O; NMePhe(4-F) = CN[C@@H](Cc1ccc(F)cc1)C(=O)O; NMeMet(O2) = CN[C@@H](CCS(C)(=O)=O)C(=O)O; NMedβ3hAla = C[C@H](CC(=O)[*:2])N(C)[*:1]; NMeGly(cPent) = CN[C@H](C(=O)O)C1CCCC1; Phe(3-I) = N[C@@H](Cc1cccc(I)c1)C(=O)O; Pro(4,4-F2) = O=C(O)[C@@H]1CC(F)(F)CN1; NMeGly(cBu) = CN[C@H](C(=O)O)C1CCC1; NMeCha = CN[C@@H](CC1CCCCC1)C(=O)O; NMeChg = CN[C@H](C(=O)O)C1CCCCC1; NMeI = CC[C@H](C)[C@H](NC)C(=O)O; N(CH2CH2)2CF2 = FC1(F)CCN(*)CC1; NMeD = CN[C@@H](CC(=O)O)C(=O)O; CH2CONHtBu = CC(C)(C)NC(=O)C*; NMeL = CN[C@@H](CC(C)C)C(=O)O; NMeV = CN[C@H](C(=O)O)C(C)C; d(β3hA) = C[C@@H](N)CC(=O)O; NMeS = CN[C@@H](CO)C(=O)O; Pip = O=C(O)[C@@H]1CCCCN1; NMeA = CN[C@@H](C)C(=O)O; NMeAib = CNC(C)(C)C(=O)O; Piperidide = C1CCN(*)CC1; dNMeA = CN[C@H](C)C(=O)O; Ac5c = NC1(C(=O)O)CCCC1; Aze = O=C(O)[C@@H]1CCN1; Ac4c = NC1(C(=O)O)CCC1; Sar = CNCC(=O)O

Each compound was assayed against T1, Kras and SOS1 (biotin-tagged human Kras loaded with GDP, His-tagged human SOS1) (Homo sapiens, UniProt P01116, G12D) (assay: Protein-protein interaction inhibition between Kras and SOS1 (KrasGl2D-SOS PPI) using AlphaScreen). Settings: AlphaScreen; biotin-tagged human Kras loaded with GDP, His-tagged human SOS1; read-out: KRAS G12D-SOS PPI IC50.
T1 construct: made in house; host or cells: E. coli (stated for Kras only)
T1 sequence (P01116 1-188 isoform P01116-2 G12D): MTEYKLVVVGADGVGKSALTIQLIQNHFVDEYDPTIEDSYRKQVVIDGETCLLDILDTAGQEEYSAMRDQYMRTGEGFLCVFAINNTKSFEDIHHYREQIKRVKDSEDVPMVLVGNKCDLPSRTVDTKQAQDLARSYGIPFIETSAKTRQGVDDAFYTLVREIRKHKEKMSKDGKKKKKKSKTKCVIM
Type: binding
How it was run: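 Energy transfer from nickel-chelate donor beads bound to His-SOS1 to streptavidin acceptor beads bound to biotin-Kras, expressed in E. coli and loaded with GDP after purification, was monitored. Donors were excited at 680 nm; singlet oxygen reaching acceptors gave emission read at 520-620 nm.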
Compound `CC[C@H](C)[C@@H]1NC(=O)[C@H](C2CCC2)N(C)C(=O)C[C@@H](C)NC(=O)[C@H](C(C)C)N(C)C(=O)C2(CCCC2)NC(=O)[C@@H]2CCCN2C(=O)[C@H](CCc2ccc(C(F)(F)F)c(Cl)c2)NC(=O)CN(C)C(=O)[C@H](CC2CCCCC2)N(C)C(=O)[C@@H]2CCN2C(=O)[C@H](C)N(C)C1=O` [Compound 465] (cyclo([Ac5c][NMeV][d(β3hA)][NMeGly(cBu)]I[NMeA][Aze][NMeCha][Sar][hPhe(3-Cl-4-CF3)]P)) has an IC50 of 55 nM. `CC[C@H](C)[C@@H]1NC(=O)[C@H](CC(C)C)N(C)C(=O)C[C@@H](C(=O)N2CCCCC2)N(C)C(=O)[C@H](C2CCCCC2)N(C)C(=O)C2(CCCC2)NC(=O)[C@@H]2CCCN2C(=O)[C@H](CCc2ccc(C(F)(F)F)c(Cl)c2)NC(=O)CN(C)C(=O)[C@H](CCS(C)(=O)=O)N(C)C(=O)CN(C)C(=O)CN(C)C1=O` [Compound 1094] ([NMeL]I[Sar][Sar][NMeMet(O2)][Sar][hPhe(3-Cl-4-CF3)]P[Ac5c][NMeChg][NMeD]-Piperidide; lactam N-11) gave an IC50 of 2.2 nM. In the case of `CC[C@H](C)[C@@H]1NC(=O)[C@H](CC(C)C)N(C)C(=O)C[C@@H](C)N(C)C(=O)[C@H]([C@@H](C)CC)N(C)C(=O)C2(CCC2)NC(=O)[C@@H]2CC(F)(F)CN2C(=O)[C@H](CCc2ccc(C(F)(F)F)c(Cl)c2)NC(=O)CN(C)C(=O)[C@H](Cc2ccc(C)cc2)N(C)C(=O)CN(C)C(=O)CN(C)C1=O` [Compound 869] (cyclo([Ac4c][NMeI][NMedβ3hAla][NMeL]I[Sar][Sar][NMePhe(4-Me)][Sar][hPhe(3-Cl-4-CF3)][Pro(4,4-F2)])), the IC50 is reported as 9.8 nM. In the case of `CC[C@H](C)[C@@H]1NC(=O)[C@H](CC(C)C)N(C)C(=O)C[C@@H](C)NC(=O)[C@H](C2CCCC2)N(C)C(=O)C2(CCCC2)NC(=O)[C@@H](C)NC(=O)[C@H](CCc2ccc(C(F)(F)F)c(Cl)c2)NC(=O)CN(C)C(=O)[C@H](Cc2ccc(C)cc2)N(C)C(=O)[C@@H]2CCN2C(=O)[C@H](C)N(C)C1=O` [Compound 1328] (cyclo([Ac5c][NMeGly(cPent)][d(β3hA)][NMeL]I[NMeA][Aze][NMePhe(4-Me)][Sar][hPhe(3-Cl-4-CF3)][dA])), the IC50 is reported as 220 nM. With `CC[C@H](C)[C@@H]1NC(=O)[C@H](CC(C)C)N(C)C(=O)C[C@@H](C(=O)N2C3CCC2COC3)N(C)C(=O)[C@H](C2CCCC2)N(C)C(=O)C2(CCCC2)NC(=O)[C@H](CC(=O)N2CCC(F)(F)CC2)N(C)C(=O)[C@H](CCc2ccc(C(F)(F)F)c(Cl)c2)NC(=O)CN(C)C(=O)[C@H](CC2CCCCC2)N(C)C(=O)[C@@H]2CCN2C(=O)[C@H](C)N(C)C1=O` [Compound 1039] ([NMeL]I[NMeA][Aze][NMeCha][Sar][hPhe(3-Cl-4-CF3)][NMeD](N(CH2CH2)2CF2)[Ac5c][NMeGly(cPent)][NMeD]-{3Oxa8azabicyclo(3.2.1)octane}; lactam N-11) the IC50 was 45 nM. `CC[C@H](C)[C@@H]1NC(=O)[C@@H]2CCCCN2C(=O)C[C@@H](C(=O)N2CCCCC2)N(C)C(=O)[C@H](C(C)C)N(C)C(=O)C2(CCCC2)NC(=O)[C@@H]2CCCN2C(=O)[C@H](CCc2ccc(C(F)(F)F)c(F)c2)NC(=O)CN(C)C(=O)[C@H](CC2CCCCC2)N(C)C(=O)CN(C)C(=O)CN(C)C1=O` [Compound 670] ([Pip]I[Sar][Sar][NMeCha][Sar][hPhe(3-F,4-CF3)]P[Ac5c][NMeV][NMeD]-Piperidide; lactam N-11) gave an IC50 of 5.1 nM. Compound `CC[C@H](C)[C@@H]1NC(=O)[C@H](CC(C)C)N(C)C(=O)C[C@@H](C(=O)N2CCCCC2)N(C)C(=O)[C@H](CC(C)C)NC(=O)C(C)(C)N(C)C(=O)[C@H](Cc2ccc(OC)cc2)NC(=O)[C@H](Cc2cccc(I)c2)NC(=O)CN(C)C(=O)[C@H](Cc2ccc(C)cc2)N(C)C(=O)[C@@H]2CCN2C(=O)[C@H](C)N(C)C1=O` [Compound 703] ([NMeL]I[NMeA][Aze][NMePhe(4-Me)][Sar][Phe(3-I)]Y(Me)[NMeAib]L[NMeD]-Piperidide; lactam N-11) has an IC50 of 8.5 nM. `CC[C@H](C)[C@@H]1NC(=O)[C@H](CC(C)C)N(C)C(=O)C[C@@H](C(=O)N2CCCCC2)N(C)C(=O)[C@H](C(C)C)N(C)C(=O)C2(CCCC2)NC(=O)[C@@H]2CCCN2C(=O)[C@H](CCc2ccc(C(F)(F)F)c(Cl)c2)NC(=O)CN(C)C(=O)[C@H](CC2CCCCC2)N(C)C(=O)[C@@H]2CCN2C(=O)[C@H](COCC(=O)NC(C)(C)C)N(C)C1=O` [Compound 998] ([NMeL]I[NMeS](CH2CONHtBu)[Aze][NMeCha][Sar][hPhe(3-Cl-4-CF3)]P[Ac5c][NMeV][NMeD]-Piperidide; lactam N-11) was tested, and the IC50 was 17 nM. In the case of `CC[C@H](C)[C@@H]1NC(=O)[C@H](C)N(C)C(=O)C[C@@H](C(=O)N2CCCCC2)N(C)C(=O)[C@H](C(C)C)N(C)C(=O)C2(CCCC2)NC(=O)[C@@H]2CCCN2C(=O)[C@H](CCc2ccc(C(F)(F)F)c(Cl)c2)NC(=O)[C@@H](C)N(C)C(=O)[C@H](Cc2ccc(F)cc2)N(C)C(=O)CN(C)C(=O)CN(C)C1=O` [Compound 1755] ([NMeA]I[Sar][Sar][NMePhe(4-F)][dNMeA][hPhe(3-Cl-4-CF3)]P[Ac5c][NMeV][NMeD]-Piperidide; lactam N-11), the IC50 is reported as 7.9 nM.
